How the values were obtained:
Assay type in all cases: in vivo
[1] = system: barnyardgrass (Echinochloa crus-galli); assay: Test A preemergence soil spray, visual injury rating 0-100; conditions: 10 days
Procedure, shortened: (§1)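 Compounds formulated in a non-phytotoxic solvent with surfactant are sprayed onto soil of freshly planted loam-sand pots ahead of emergence, or onto emerged plants 2-10 cm tall. After a 10-day greenhouse period, each species is scored visually for injury against untreated controls.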

[2] = system: blackgrass (Alopecurus myosuroides); assay: as above; conditions: 10 days
Procedure, shortened: as §1

corn (Zea mays) [3] = assay: as above; conditions: 10 days
Procedure, shortened: as §1

[4] = system: green foxtail (Setaria viridis); assay: as above; conditions: 10 days
Procedure, shortened: as §1

kochia (Bassia scoparia) [5] = assay: as above; conditions: 10 days
Procedure, shortened: as §1

[6] = system: oat, wild (wild oat, Avena fatua); assay: as above; conditions: 10 days
Procedure, shortened: as §1

[7] = system: palmer (palmer amaranth, palmer pigweed, Amaranthus palmeri); assay: as above; conditions: 10 days
Procedure, shortened: as §1

[8] = system: ragweed (common ragweed, Ambrosia artemisiifolia); assay: as above; conditions: 10 days
Procedure, shortened: as §1

[9] = system: ryegrass, Italian (italian ryegrass, Lolium multiflorum); assay: as above; conditions: 10 days
Procedure, shortened: as §1

soybean (Glycine max) [10] = assay: as above; conditions: 10 days
Procedure, shortened: as §1

[11] = system: wheat (Triticum aestivum); assay: as above; conditions: 10 days
Procedure, shortened: as §1

[12] = system: barnyardgrass (Echinochloa crus-galli); assay: Test A postemergence application, visual injury rating 0-100; conditions: for Barnyardgrass plant response rating (0 to 100 scale): Postemergence
Procedure, shortened: as §1

[13] = system: blackgrass (Alopecurus myosuroides); assay: as above; conditions: for Blackgrass plant response rating (0 to 100 scale): Postemergence
Procedure, shortened: as §1

corn (Zea mays) [14] = assay: as above; conditions: for Corn plant response rating (0 to 100 scale): Postemergence
Procedure, shortened: as §1

[15] = system: galium (catchweed bedstraw, Galium aparine); assay: as above; conditions: for Galium plant response rating (0 to 100 scale): Postemergence
Procedure, shortened: as §1

[16] = system: green foxtail (Setaria viridis); assay: as above; conditions: for Foxtail, Green plant response rating (0 to 100 scale): Postemergence
Procedure, shortened: as §1

[17] = system: horseweed (Erigeron canadensis); assay: as above; conditions: for Horseweed plant response rating (0 to 100 scale): Postemergence
Procedure, shortened: as §1

kochia (Bassia scoparia) [18] = assay: as above; conditions: for Kochia plant response rating (0 to 100 scale): Postemergence
Procedure, shortened: as §1

[19] = system: oat, wild (wild oat, Avena fatua); assay: as above; conditions: for Oat, Wild plant response rating (0 to 100 scale): Postemergence
Procedure, shortened: as §1

[20] = system: palmer (palmer amaranth, palmer pigweed, Amaranthus palmeri); assay: as above
Procedure, shortened: as §1

[21] = system: ragweed (common ragweed, Ambrosia artemisiifolia); assay: as above; conditions: for Ragweed plant response rating (0 to 100 scale): Postemergence
Procedure, shortened: as §1

[22] = system: ryegrass, Italian (italian ryegrass, Lolium multiflorum); assay: as above; conditions: for Ryegrass, Italian plant response rating (0 to 100 scale): Postemergence
Procedure, shortened: as §1

soybean (Glycine max) [23] = assay: as above; conditions: for Soybean plant response rating (0 to 100 scale): Postemergence
Procedure, shortened: as §1

[24] = system: wheat (Triticum aestivum); assay: as above; conditions: for Wheat plant response rating (0 to 100 scale): Postemergence
Procedure, shortened: as §1

[25] = system: barnyardgrass (Echinochloa crusgalli); assay: Test B flooded paddy test, visual plant response rating 0-100; conditions: 250 g ai/ha, Flood, applied to paddy water, evaluated after 13 days
Procedure, shortened: (§2)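 Visual scores versus untreated controls were recorded 13 days after treatment of greenhouse-held plants. At the 2-leaf stage, pots were flooded 3 cm above the soil surface and compounds added straight to the water.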

[26] = system: ducksalad (Heteranthera limosa); assay: as above; conditions: 250 g ai/ha, Flood, applied to paddy water, evaluated after 13 days
Procedure, shortened: as §2

rice (Oryza sativa) = assay: as above; conditions: 250 g ai/ha, Flood, applied to paddy water, evaluated after 13 days
Procedure, shortened: as §2

[27] = system: sedge, umbrella (small-flower umbrella sedge, Cyperus difformis); assay: as above; conditions: 250 g ai/ha, Flood, applied to paddy water, evaluated after 13 days
Procedure, shortened: as §2

[28] = 31 g ai/ha, 0 = no effect, 100 = complete control
[29] = 125 g ai/ha, 0 = no effect, 100 = complete control
[30] = 31 g ai/ha, greenhouse 10 days, 0 no effect, 100 complete control
[31] = 125 g ai/ha, 10 days, 0 is no effect, 100 is complete control
[32] = 62 g ai/ha, 0 = no effect, 100 = complete control
[33] = 62 g ai/ha, postemergence, 10 days, 0 = no effect, 100 = complete control
[34] = 16 g ai/ha, greenhouse 10 days, 0 no effect, 100 complete control

SMILES: COC(=O)COC(=O)C1C=CC(NC(=O)C2(C)CN(c3cc(Cl)cc(Cl)c3)C(=O)O2)C1 (stereo not shown) [Compound 65]
- Barnyardgrass plant response rating (0-100) [1, 28]: 90
- Barnyardgrass plant response rating (0 to 100 scale) [1, 29]: 90
- Blackgrass plant response rating (0-100) [2, 28]: 50
- Blackgrass plant response rating (0 to 100 scale) [2, 29]: 70
- Corn plant response rating (0-100) (corn (Zea mays) [3]; [28]): 0
- Corn plant response rating (0 to 100 scale) (corn (Zea mays) [3]; [29]): 70
- Foxtail, Green plant response rating (0-100) [4, 28]: 90
- Foxtail, Green plant response rating (0 to 100 scale) [4, 29]: 90
- Kochia plant response rating (0-100) (kochia (Bassia scoparia) [5]; [28]): 10
- Kochia plant response rating (0 to 100 scale) (kochia (Bassia scoparia) [5]; [29]): 10
- Oat, Wild plant response rating (0-100) [6, 28]: 20
- Oat, Wild plant response rating (0 to 100 scale) [6, 29]: 80
- Amaranth, Palmer plant response rating (0-100) [7, 28]: 100
- Amaranth, Palmer plant response rating (0 to 100 scale) [7, 29]: 100
- Ragweed plant response rating (0-100) [8, 28]: 10
- Ragweed plant response rating (0 to 100 scale) [8, 29]: 70
- Ryegrass, Italian plant response rating (0-100) [9, 28]: 70
- Ryegrass, Italian plant response rating (0 to 100 scale) [9, 29]: 90
- Soybean plant response rating (0-100) (soybean (Glycine max) [10]; [28]): 10
- Soybean plant response rating (0 to 100 scale) (soybean (Glycine max) [10]; [29]): 70
- Wheat plant response rating (0-100) [11, 28]: 50
- Wheat plant response rating (0 to 100 scale) [11, 29]: 90
- Barnyardgrass plant response rating (0 to 100 scale) [12, 30]: 100
- Barnyardgrass plant response rating (0 to 100 scale) [12, 31]: 100
- Blackgrass plant response rating (0 to 100 scale) [13, 30]: 90
- Blackgrass plant response rating (0 to 100 scale) [13, 31]: 100
- Corn plant response rating (0 to 100 scale) (corn (Zea mays) [14]; [30]): 100
- Corn plant response rating (0 to 100 scale) (corn (Zea mays) [14]; [31]): 100
- Galium plant response rating (0 to 100 scale) [15, 30]: 80
- Galium plant response rating (0 to 100 scale) [15, 31]: 90
- Foxtail, Green plant response rating (0 to 100 scale) [16, 30]: 90
- Foxtail, Green plant response rating (0 to 100 scale) [16, 31]: 90
- Horseweed plant response rating (0 to 100 scale) [17, 30]: 70
- Horseweed plant response rating (0 to 100 scale) [17, 31]: 70
- Kochia plant response rating (0 to 100 scale) (kochia (Bassia scoparia) [18]; [30]): 80
- Kochia plant response rating (0 to 100 scale) (kochia (Bassia scoparia) [18]; [31]): 90
- Oat, Wild plant response rating (0 to 100 scale) [19, 30]: 90
- Oat, Wild plant response rating (0 to 100 scale) [19, 31]: 90
- Amaranth, Palmer / Pigweed, Palmer plant response rating (0 to 100 scale) ([20]; Postemergence, 31 g ai/ha, greenhouse 10 days, 0 no effect, 100 complete control): 90
- Amaranth, Palmer / Pigweed, Palmer plant response rating (0 to 100 scale) ([20]; Postemergence, 125 g ai/ha, 10 days, 0 is no effect, 100 is complete control): 90
- Ragweed plant response rating (0 to 100 scale) [21, 30]: 80
- Ragweed plant response rating (0 to 100 scale) [21, 31]: 80
- Ryegrass, Italian plant response rating (0 to 100 scale) [22, 30]: 100
- Ryegrass, Italian plant response rating (0 to 100 scale) [22, 31]: 100
- Soybean plant response rating (0 to 100 scale) (soybean (Glycine max) [23]; [30]): 80
- Soybean plant response rating (0 to 100 scale) (soybean (Glycine max) [23]; [31]): 80
- Wheat plant response rating (0 to 100 scale) [24, 30]: 90
- Wheat plant response rating (0 to 100 scale) [24, 31]: 90
- Plant response rating, Barnyardgrass (0 to 100 scale, 0 is no effect and 100 is complete control) [25]: 75
- Plant response rating, Ducksalad (0 to 100 scale, 0 is no effect and 100 is complete control) [26]: 95
- Plant response rating, Rice (0 to 100 scale, 0 is no effect and 100 is complete control) (rice (Oryza sativa)): 60
- Plant response rating, Sedge, Umbrella (0 to 100 scale, 0 is no effect and 100 is complete control) [27]: 100

SMILES: CCOC(=O)C1C=CC(NC(=O)C2(C)CN(c3cccc(OC(F)(F)F)c3)C(=O)O2)C1 (stereo not shown) [Compound 102]
- Barnyardgrass plant response rating ([1]; 16 g ai/ha, 0 to 100 scale): 0
- Barnyardgrass plant response rating (0-100) [1, 32]: 0
- Blackgrass plant response rating ([2]; 16 g ai/ha, 0 to 100 scale): 0
- Blackgrass plant response rating (0-100) [2, 32]: 30
- Corn plant response rating (corn (Zea mays) [3]; 16 g ai/ha, 0 to 100 scale): 0
- Corn plant response rating (0-100) (corn (Zea mays) [3]; [32]): 10
- Foxtail, Green plant response rating ([4]; 16 g ai/ha, 0 to 100 scale): 0
- Foxtail, Green plant response rating (0-100) [4, 32]: 10
- Kochia plant response rating (kochia (Bassia scoparia) [5]; 16 g ai/ha, 0 to 100 scale): 0
- Oat, Wild plant response rating ([6]; 16 g ai/ha, 0 to 100 scale): 0
- Oat, Wild plant response rating (0-100) [6, 32]: 30
- Pigweed, Palmer plant response rating ([7]; 16 g ai/ha, 0 to 100 scale): 0
- Pigweed, Palmer plant response rating (0-100) [7, 32]: 0
- Ragweed plant response rating ([8]; 16 g ai/ha, 0 to 100 scale): 0
- Ragweed plant response rating (0-100) [8, 32]: 0
- Ryegrass, Italian plant response rating ([9]; 16 g ai/ha, 0 to 100 scale): 0
- Ryegrass, Italian plant response rating (0-100) [9, 32]: 70
- Soybean plant response rating (soybean (Glycine max) [10]; 16 g ai/ha, 0 to 100 scale): 0
- Soybean plant response rating (0-100) (soybean (Glycine max) [10]; [32]): 0
- Wheat plant response rating ([11]; 16 g ai/ha, 0 to 100 scale): 0
- Wheat plant response rating (0-100) [11, 32]: 20
- Barnyardgrass plant response rating (0-100) [12, 33]: 80
- Barnyardgrass plant response rating (0 to 100 scale) [12, 34]: 30
- Blackgrass plant response rating (0-100) [13, 33]: 90
- Blackgrass plant response rating (0 to 100 scale) [13, 34]: 50
- Corn plant response rating (0-100) (corn (Zea mays) [14]; [33]): 60
- Corn plant response rating (0 to 100 scale) (corn (Zea mays) [14]; [34]): 0
- Galium plant response rating (0-100) [15, 33]: 70
- Galium plant response rating (0 to 100 scale) [15, 34]: 50
- Foxtail, Green plant response rating (0-100) [16, 33]: 20
- Foxtail, Green plant response rating (0 to 100 scale) [16, 34]: 10
- Horseweed plant response rating (0-100) [17, 33]: 10
- Horseweed plant response rating (0 to 100 scale) [17, 34]: 20
- Kochia plant response rating (0-100) (kochia (Bassia scoparia) [18]; [33]): 70
- Kochia plant response rating (0 to 100 scale) (kochia (Bassia scoparia) [18]; [34]): 0
- Oat, Wild plant response rating (0-100) [19, 33]: 60
- Oat, Wild plant response rating (0 to 100 scale) [19, 34]: 20
- Pigweed, Palmer plant response rating (0-100) [20, 33]: 10
- Pigweed, Palmer plant response rating (0 to 100 scale) ([20]; Postemergence, 16 g ai/ha, greenhouse 10 days, 0 no effect, 100 complete control): 0
- Ragweed plant response rating (0-100) [21, 33]: 20
- Ragweed plant response rating (0 to 100 scale) [21, 34]: 0
- Ryegrass, Italian plant response rating (0-100) [22, 33]: 70
- Ryegrass, Italian plant response rating (0 to 100 scale) [22, 34]: 20
- Soybean plant response rating (0-100) (soybean (Glycine max) [23]; [33]): 50
- Soybean plant response rating (0 to 100 scale) (soybean (Glycine max) [23]; [34]): 30
- Wheat plant response rating (0-100) [24, 33]: 20
- Wheat plant response rating (0 to 100 scale) [24, 34]: 20
- Plant response rating, Barnyardgrass (0 to 100 scale, 0 is no effect and 100 is complete control) [25]: 0
- Plant response rating, Ducksalad (0 to 100 scale, 0 is no effect and 100 is complete control) [26]: 0
- Plant response rating, Rice (0 to 100 scale, 0 is no effect and 100 is complete control) (rice (Oryza sativa)): 0
- Plant response rating, Sedge, Umbrella (0 to 100 scale, 0 is no effect and 100 is complete control) [27]: 0
